The results in this text go back to US12358921B2, “Antiviral heterocyclic compounds” (priority 2022, dated 2025).

The subject of one assay is hMPV A2 TN/94-49. Nature of the assay: HMPV antiviral assay Method 1 (LLC-MK2 cells, ATP-Lite). Format: cell-based. As to conditions: hMPV A2 TN/94-49, LLC-MK2 cells. The procedure:
In vitro HMPV antiviral activity was evaluated using the clinical isolate A2 strain TN 94-49 (obtained from Dr. John Williams, Vanderbilt University, Tennessee) and […] cells (ATCC #CCL-7), an immortalized kidney epithelial cell line from Macaca mulatta. Compounds were resuspended in dimethyl sulfoxide (DMSO) at 10 mM, serially diluted and added to a 384-well source plate. Subsequently, the compounds were diluted and transferred onto 384-well assay plates using the Echo-650 automated liquid handling system (Beckman Coulter, Indiana). The test compounds were assessed in duplicate at a top concentration of 2 μM followed by 2.5-fold serial dilutions to give a total of 10 concentration points. DMSO control wells were also included on the assay plates and were either infected or not, acting as positive and negative controls. A2 TN 94-49 virus infections were performed in-suspension with LLC-MK2 cells. The cells were washed twice with PBS and removed from the cell-culture flask with 0.25% trypsin-EDTA (Thermo Fisher Scientific, MA). The trypsin-EDTA was inactivated by resuspending in 2% fetal bovine serum (FBS) and OptiMEM (ThermoFisher Scientific, MA) containing 1% penicillin-streptomycin. Cells were pelleted by centrifuging for 5 minutes at 800 rpm, the supernatant was removed, and cells were re-suspended and washed in PBS plus 100 μg/mL CaCl2). This step was performed twice. Cells were then re-suspended in serum-free (SF)-OptiMEM containing 4 μg/mL TPCK-Trypsin (Sigma Aldrich, MO), 1% penicillin-streptomycin (ThermoFisher Scientific, MA) and 100 μg/mL CaCl2). Cells were counted and seeded at a density of 5,000 cells/well, 12.5 μL/well. Virus infections were done at a multiplicity of infection (MOI) of 0.005 with 12.5 μL added per well. Virus infections were performed in infection media which contained SF-OptiMEM, 100 μg/mL CaCl2) and 1% penicillin-streptomycin. HMPV viral stocks are suspended in infection media+5% glycerol, thus an equal volume of infection media+5% glycerol was added to uninfected wells to equalize the final % glycerol across all wells of the assay plate. The final concentration of TPCK-trypsin was 2 μg/mL. The assay plates were incubated at 37° C., 5% CO2 for 7 days. After 7 days incubation, 12.5 μL of ATP-Lite (PerkinElmer, MA) was added to each well and the raw luminescence values were determined using the Envision 2104 (Perkin Elmer, MA). The average of the raw luminescence values for the cells and virus only positive control wells was subtracted from all conditions tested and the percent cell health was determined by dividing these values by the average of the cells only negative control wells. EC50 values were then calculated by non-linear regression using a four-parameter curve logistic equation. The curve fit model employed was XLFit Dose Response One Site Model 200: y=(A+(B/(1+((x/C)^D)))), where A is the minimum y value, B is the maximum y value, C is the log EC50value, and D is the slope factor. Method 2: In Vitro HMPV Antiviral Activity was Evaluated Using the Clinical Isolate A2 Strain TN 94-49

The test system of assay [1] is HUMAN RSV-A (“LONG” STRAIN). The experiment in a line: RSV-A assay (CPE, ATPlite) in Hep-2 cells. It counts as cell-based. As to conditions: human respiratory syncytial virus, 120 h, MOI 0.1, 5-day incubation. The essentials:
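Protection from RSV cytopathic effect read by ATP luminescence (ATPlite) after 5-day culture. Genotype A "Long" virus added at MOI 0.1 to Hep-2 monolayers at 8,000 cells/well, pre-dosed with duplicate 2-fold compound dilutions; controls include infected untreated and uninfected wells. EC50 values binned into ranges.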
A general note: ATP-based viability assays read luminescence as a measure of living cells.

Where only a bound is given, the exact number is not on record here.

What is called EC50 is the concentration that produces a half-maximal response. A low value points to greater potency. As to `COc1cc(C(=O)NC[C@@](O)(c2ccsc2)c2cc3c(c(-c4cc(Cl)c(F)cc4F)n2)OC[C@]3(C)C(N)=O)cc2cn(C3(F)CC3)nc12` [Example 175], the EC50 in the assay with hMPV A2 TN/94-49 is below 500 nM; in assay [1] it was below 200 nM.
The like results for `C[C@]1(C(N)=O)COc2c1cc([C@@](O)(CNC(=O)c1cc(OC3CC3)c3nn(C4CC4)cc3c1)C1CC1)nc2-c1cc(Cl)c(F)cc1F` [Example 2] were, in that order, below 500 nM and below 200 nM.
The like results for `COc1cc(C(=O)NC[C@@](O)(c2ccccc2)c2cc3c(c(-c4cc(C(F)(F)F)ccc4F)n2)OC[C@]3(C)C(N)=O)cc2cn(C(F)F)nc12` [Example 148] were, in that order, below 500 nM and below 200 nM.
For `[2H]C([2H])([2H])c1nc2c(OC)cc(C(=O)NC[C@](O)(c3cc4c(c(-c5cc(Cl)c(F)cc5F)n3)OC[C@]4(C)C(N)=O)C3CC3)cc2s1` [Example 10] the same measures were below 500 nM and below 200 nM.
Turning to `COc1cc(C(=O)NC[C@@](O)(c2cccc(F)c2)c2cc3c(c(-c4cc(Cl)c(F)cc4F)n2)OC[C@]3(C)C(N)=O)cc2cn(C(F)F)nc12` [Example 134], the values for the EC50 (with hMPV A2 TN/94-49; in assay [1]) were below 500 nM and below 200 nM, respectively.
Regarding `COc1cc(C(=O)NC[C@](O)(c2cc3c(c(-c4cc(F)c(F)c(F)c4Cl)n2)OC[C@]3(C)C(N)=O)C(F)(F)F)cc2cn(C3CC3)nc12` [Example 59], the values for the EC50 (with hMPV A2 TN/94-49; in assay [1]) were below 500 nM and below 200 nM, respectively.
For `COc1cc(C(=O)NC[C@@](O)(c2ccccc2)c2cc3c(c(-c4cccc(Cl)c4Cl)n2)OC[C@]3(C)C(N)=O)cc2cn(C(F)F)nc12` [Example 261] the same measures were below 500 nM and below 200 nM.
For `COc1cc(C(=O)NC[C@](O)(c2cc3c(c(-c4cc(Cl)c(F)cc4F)n2)OC[C@]3(C)C(N)=O)c2cc(C)cs2)cc2cn(C3CC3)nc12` [Example 467] the same measures were below 500 nM and below 200 nM.
Turning to `COc1cc(C(=O)NC[C@](O)(c2cc3c(c(-c4cc(Cl)c(F)cc4F)n2)OC[C@]3(C)C(N)=O)c2ccccc2F)cc2cn(C(F)F)nc12` [Example 138], the EC50 in the assay with hMPV A2 TN/94-49 was below 500 nM; in assay [1] it was below 200 nM.
The like results for `[2H]C([2H])([2H])c1nc2c(OC)cc(C(=O)NC[C@@](O)(c3ccc(OC)cc3)c3cc4c(c(-c5cc(Cl)c(F)cc5F)n3)OC[C@]4(C)C(N)=O)cc2s1` [Example 168] were, in that order, below 500 nM and below 200 nM.
The like results for `COc1cc(C(=O)NC[C@@](O)(c2ccccc2)c2cc3c(c(-c4ccc(F)c(Cl)c4Cl)n2)OC[C@]3(C)C(N)=O)cc2cn(C3CC3)nc12` [Example 257] were, in that order, below 500 nM and below 200 nM.
For `COc1cc(C(=O)NC[C@@](O)(c2ccsc2)c2cc3c(c(-c4cc(Cl)c(F)cc4F)n2)OC[C@]3(C)C(N)=O)cc2cn(C(F)F)nc12` [Example 174] the same measures were below 500 nM and below 200 nM.
With `COc1ccc([C@](O)(CNC(=O)c2cc(OC)c3nn(C(F)F)cc3c2)c2cc3c(c(-c4cc(Cl)c(F)cc4F)n2)OC[C@]3(C)C(N)=O)cc1` [Example 167], the EC50 with hMPV A2 TN/94-49 is below 500 nM; in assay [1], below 200 nM.
The like results for `COc1cc(C(=O)NCC(O)(c2csc(Cl)c2)c2cc3c(c(-c4cc(Cl)c(F)cc4F)n2)OC[C@]3(C)C(N)=O)cc2cn(C3CC3)nc12` (stereo partly shown) [Example 471] were, in that order, below 500 nM and below 200 nM.
For `Cc1nc2ccc(C(=O)NC[C@@](O)(c3cccc(F)c3)c3cc4c(c(-c5ccc6c(c5Cl)OC(F)(F)O6)n3)OC[C@]4(C)C(N)=O)cc2o1` [Example 284] the same measures were below 500 nM and below 200 nM.
For `COc1cc(C(=O)NC[C@@](O)(c2ccccc2)c2cc3c(c(-c4cc(Cl)c(F)cc4F)n2)OC[C@]3(C)C(N)=O)cc2cn(C(F)F)nc12` [Example 156] the same measures were below 500 nM and below 200 nM.
Consider `COc1cc(C(=O)NC[C@@](O)(c2ccccc2)c2cc3c(c(-c4ccc5c(c4Cl)OC(F)(F)O5)n2)OC[C@]3(C)C(N)=O)cc2cn(C3CC3)nc12` [Example 251], for which the values for the EC50 (with hMPV A2 TN/94-49; in assay [1]) were below 500 nM and below 200 nM, respectively.
For the compound `[2H]C([2H])([2H])c1nc2c(OC)cc(C(=O)NC[C@@](O)(c3cccc(F)c3)c3cc4c(c(-c5ccc(F)c(Cl)c5Cl)n3)OC[C@]4(C)C(N)=O)cc2s1` [Example 272], the EC50 in the assay with hMPV A2 TN/94-49 is below 500 nM; in assay [1] it was below 200 nM.
The like results for `Cc1nc2ccc(C(=O)NC[C@@](O)(c3cccc(F)c3)c3cc4c(c(-c5ccc(F)c(Cl)c5Cl)n3)OC[C@]4(C)C(N)=O)cc2o1` [Example 283] were, in that order, below 500 nM and below 200 nM.
The like results for `COc1cc(C(=O)NC[C@@](O)(c2ccc(F)cc2)c2cc3c(c(-c4cc(Cl)c(F)cc4F)n2)OC[C@]3(C)C(N)=O)cc2cc(C3CC3)nn12` [Example 15] were, in that order, below 500 nM and below 200 nM.
The like results for `COc1cc(C(=O)NCC(O)(c2cc3c(c(-c4cc(Cl)c(F)cc4F)n2)OC[C@]3(C)C(N)=O)c2cc3ccccc3s2)cc2cn(C3CC3)nc12` (stereo partly shown) [Example 469] were, in that order, above 500 nM and below 200 nM.
`COc1cc(C(=O)NC[C@](O)(c2cc3c(c(-c4ccc5c(c4Cl)OC(F)(F)O5)n2)OC[C@]3(C)C(N)=O)C(F)(F)F)cc2cn(C3CC3)nc12` [Example 52]: the EC50 in the assay with hMPV A2 TN/94-49 is above 500 nM; in assay [1], below 200 nM.
The like results for `COc1cc(C(=O)NC[C@@](O)(c2ccc(F)cc2)c2cc3c(c(-c4cc(Cl)c(F)cc4F)n2)OC[C@]3(C)C(N)=O)cc2cn(C(F)F)nc12` [Example 13] were, in that order, below 500 nM and below 200 nM.
For `[2H]C([2H])([2H])c1nc2c(OC)cc(C(=O)NC[C@@](O)(c3ccccc3)c3cc4c(c(-c5cc(Cl)c(F)cc5F)n3)OC[C@]4(C)C(N)=O)cc2s1` [Example 155] the same measures were below 500 nM and below 200 nM.
For `Cc1nc2c(OC(F)F)cc(C(=O)NC[C@@](O)(c3cccc(F)c3)c3cc4c(c(-c5cc(Cl)c(F)cc5F)n3)OC[C@]4(C)C(N)=O)cc2cc1Br` [Example 135] the same measures were above 500 nM and below 200 nM.
On to `COc1cc(C(=O)NC[C@](O)(c2cc3c(c(-c4cccc(SC(F)(F)F)c4)n2)OC[C@]3(C)C(N)=O)C2CC2)cc2cn(C3CC3)nc12` [Example 36], for which the values for the concentration for a half-maximal effect (EC50) (in the assay on hMPV A2 TN/94-49; in assay [1]) were above 500 nM and below 200 nM, respectively.
The like results for `COc1cc(C(=O)NC[C@](O)(c2cc3c(c(-c4cccc(S(F)(F)(F)(F)F)c4)n2)OC[C@]3(C)C(N)=O)C(F)(F)F)cc2cn(C3CC3)nc12` [Example 54] were, in that order, above 500 nM and below 200 nM.
For `COc1cc(C(=O)NC[C@](O)(c2cc3c(c(-c4ccc(C(F)(F)F)c(C)c4)n2)OC[C@]3(C)C(N)=O)C2CC2)cc2cn(C3CC3)nc12` [Example 55], the EC50 with hMPV A2 TN/94-49 was above 500 nM; in assay [1] it was below 200 nM.
The like results for `CNC(=O)[C@@]1(C)COc2c1cc([C@@](O)(CNC(=O)c1cc(OC)c3nn(C4CC4)cc3c1)c1ccccc1)nc2-c1cc(Cl)c(F)cc1F` [Example 141] were, in that order, below 500 nM and below 200 nM.
The like results for `[2H]C([2H])([2H])c1nc2c(OC)cc(C(=O)NC[C@](O)(c3cc4c(c(-c5ccc(F)c(Cl)c5Cl)n3)OC[C@]4(C)C(N)=O)C3CC3)cc2cc1Br` [Example 24] were, in that order, below 500 nM and below 200 nM.
For `[2H]C([2H])([2H])c1nc2c(OC)cc(C(=O)NC[C@@](O)(c3ccsc3)c3cc4c(c(-c5cc(Cl)c(F)cc5F)n3)OC[C@]4(C)C(N)=O)cc2s1` [Example 176] the same measures were below 500 nM and below 200 nM.
For the compound `COc1cc(C(=O)NC[C@@](O)(c2cccc(F)c2)c2cc3c(c(-c4ccc5c(c4Cl)OC(F)(F)O5)n2)OC[C@]3(C)C(N)=O)cc2cn(C3CC3)nc12` [Example 274], the EC50 in the assay with hMPV A2 TN/94-49 is below 500 nM; in assay [1], below 200 nM.
